Laboratory results: patent US20220265629A1, “TREATMENT OF SYSTOLIC DYSFUNCTION AND HEART FAILURE WITH REDUCED EJECTION FRACTION WITH THE COMPOUND (R)-4-(1-((3-(DIFLUOROMETHYL)-1-METHYL-1H-PYRAZOL-4-YL)SULFONYL)-1-FLUOROETHYL)-N-(ISOXAZOL-3-YL)PIPERIDINE-1-CARBOXAMIDE” (MyoKardia, Inc., priority 2019, published 2022)

Test system: patients with stable HFrEF
Assay: HFrEF study Part 2 (MAD Cohorts A-D): safety (TEAEs, serum troponin, ECG, Holter)
Assay type: in vivo, human
Description: Safety and efficacy assessments were conducted by measuring patients' vital signs and laboratory parameters; performing TTE to measure, e.g., systolic ejection time; performing electrocardiograms (e.g., 12-lead ECG), real-time ECG telemetry (e.g., at least 3-lead), and Holter ECG; and measuring levels of troponin (e.g., troponin I and/or troponin T) and […].
The following safety laboratory parameters were measured: (1) hematology parameters (CBC, including differential count, and platelet count); (2) serum chemistry parameters (e.g., sodium, potassium, chloride, bicarbonate, calcium, magnesium, urea, creatinine, ALP, ALT, AST, total bilirubin, glucose, and CPK); and (3) urinalysis parameters (e.g., pH, protein, glucose, leukocyte esterase, and blood).
Abnormal and/or rising troponin values (as per investigator's judgment and taking into account potential baseline troponin elevation frequently observed in heart failure) led to the patient being clinically evaluated for possible myocardial ischemia. […] The entire clinical context (e.g., signs, symptoms, new ECG changes, new troponin, and CK-MB abnormalities) was evaluated and correlated with any other relevant clinical findings, patient's medical history, and laboratory data to determine the clinical significance of the findings. Troponin results performed on Day 2 of Part 1 (SAD) and Day 10 of Part 2 (MAD) at a local lab were reviewed prior to the patient being discharged the next day.

[1] = Cohort A + C 75 mg BID (n = 15)
[2] = serum, MAD cohorts, Total Compound I (n = 22), ULN = 0.014
[3] = serum, MAD cohorts, Total Compound I (n = 30), ULN = 0.03

## Cn1cc(S(=O)(=O)[C@@](C)(F)C2CCN(C(=O)Nc3ccon3)CC2)c(C(F)F)n1 [Compound I, (R)-4-(1-((3-(difluoromethyl)-1-methyl-1H-pyrazol-4-yl)sulfonyl)-1-fluoroethyl)-N-(isoxazol-3-yl)piperidine-1-carboxamide]
50 mg
  patients with troponin increase: 2/9
75 mg
  patients with troponin increase: 2/15
100 mg
  patients with troponin increase: 3/6
[1]
  Any AE leading to death, number of patients (%): 0 n (%)
  Any TEAE leading to permanent treatment discontinuation, number of patients (%): 0 n (%)
  Any TEAE, number of patients (%): 6 (40.0) n (%)
  Any serious TEAE, number of patients (%): 1 (6.7) n (%)
  TEAE: Abdominal discomfort: 0 n (%)
  TEAE: Alanine aminotransferase increased: 1 (6.7) n (%)
  TEAE: Anemia: 1 (6.7) n (%)
  TEAE: Application site erosion: 0 n (%)
  TEAE: Arthralgia: 0 n (%)
  TEAE: Arthropod bite: 0 n (%)
  TEAE: Back pain: 0 n (%)
  TEAE: Blood creatine phosphokinase increased: 0 n (%)
  TEAE: Blood creatinine increased: 0 n (%)
  TEAE: Cough: 1 (6.7) n (%)
  TEAE: Dermatitis contact: 0 n (%)
  TEAE: Dry eye: 0 n (%)
  TEAE: Fatigue: 2 (13.3) n (%)
  TEAE: Fluid overload: 0 n (%)
  TEAE: Gingival pain: 0 n (%)
  TEAE: Hyperkalemia: 0 n (%)
  TEAE: Infusion site erythema: 0 n (%)
  TEAE: Nasopharyngitis: 0 n (%)
  TEAE: Rash: 0 n (%)
  TEAE: Renal failure: 0 n (%)
  TEAE: Renal impairment: 0 n (%)
  TEAE: Testicular pain: 0 n (%)
  TEAE: Troponin increased: 1 (6.7) n (%)
  TEAE: Ventricular tachycardia: 0 n (%)
Cohort B 50 mg BID (n = 9)
  Any AE leading to death, number of patients (%): 0 n (%)
  Any TEAE leading to permanent treatment discontinuation, number of patients (%): 0 n (%)
  Any TEAE, number of patients (%): 7 (77.8) n (%)
  Any serious TEAE, number of patients (%): 0 n (%)
  TEAE: Abdominal discomfort: 1 (11.1) n (%)
  TEAE: Alanine aminotransferase increased: 1 (11.1) n (%)
  TEAE: Anemia: 0 n (%)
  TEAE: Application site erosion: 1 (11.1) n (%)
  TEAE: Arthralgia: 0 n (%)
  TEAE: Arthropod bite: 0 n (%)
  TEAE: Back pain: 0 n (%)
  TEAE: Blood creatine phosphokinase increased: 1 (11.1) n (%)
  TEAE: Blood creatinine increased: 0 n (%)
  TEAE: Cough: 0 n (%)
  TEAE: Dermatitis contact: 2 (22.2) n (%)
  TEAE: Dry eye: 0 n (%)
  TEAE: Fatigue: 0 n (%)
  TEAE: Fluid overload: 1 (11.1) n (%)
  TEAE: Gingival pain: 0 n (%)
  TEAE: Hyperkalemia: 1 (11.1) n (%)
  TEAE: Infusion site erythema: 1 (11.1) n (%)
  TEAE: Nasopharyngitis: 0 n (%)
  TEAE: Rash: 1 (11.1) n (%)
  TEAE: Renal failure: 0 n (%)
  TEAE: Renal impairment: 0 n (%)
  TEAE: Testicular pain: 0 n (%)
  TEAE: Troponin increased: 0 n (%)
  TEAE: Ventricular tachycardia: 1 (11.1) n (%)
Cohort D 100 mg BID (n = 6)
  Any AE leading to death, number of patients (%): 0 n (%)
  Any TEAE leading to permanent treatment discontinuation, number of patients (%): 0 n (%)
  Any TEAE, number of patients (%): 4 (66.7) n (%)
  Any serious TEAE, number of patients (%): 0 n (%)
  TEAE: Abdominal discomfort: 0 n (%)
  TEAE: Alanine aminotransferase increased: 0 n (%)
  TEAE: Anemia: 0 n (%)
  TEAE: Application site erosion: 0 n (%)
  TEAE: Arthralgia: 0 n (%)
  TEAE: Arthropod bite: 1 (16.7) n (%)
  TEAE: Back pain: 0 n (%)
  TEAE: Blood creatine phosphokinase increased: 0 n (%)
  TEAE: Blood creatinine increased: 1 (16.7) n (%)
  TEAE: Cough: 0 n (%)
  TEAE: Dermatitis contact: 0 n (%)
  TEAE: Dry eye: 0 n (%)
  TEAE: Fatigue: 0 n (%)
  TEAE: Fluid overload: 0 n (%)
  TEAE: Gingival pain: 1 (16.7) n (%)
  TEAE: Hyperkalemia: 0 n (%)
  TEAE: Infusion site erythema: 0 n (%)
  TEAE: Nasopharyngitis: 0 n (%)
  TEAE: Rash: 0 n (%)
  TEAE: Renal failure: 0 n (%)
  TEAE: Renal impairment: 0 n (%)
  TEAE: Testicular pain: 0 n (%)
  TEAE: Troponin increased: 1 (16.7) n (%)
  TEAE: Ventricular tachycardia: 1 (16.7) n (%)
MAD cohorts
  QTc: No increase
MAD cohorts, 50-100 mg BID
  patients with treatment-emergent adverse events (TEAEs): 17 (57%)
MAD cohorts, all doses
  patients with transient asymptomatic increase in troponin I or hs-troponin T: 7 (23%)
Total Compound I (n = 30)
  Any AE leading to death, number of patients (%): 0 n (%)
  Any TEAE leading to permanent treatment discontinuation, number of patients (%): 0 n (%)
  Any TEAE, number of patients (%): 17 (56.7) n (%)
  Any serious TEAE, number of patients (%): 1 (3.3) n (%)
  TEAE: Abdominal discomfort: 1 (3.3) n (%)
  TEAE: Alanine aminotransferase increased: 2 (6.7) n (%)
  TEAE: Anemia: 1 (3.3) n (%)
  TEAE: Application site erosion: 1 (3.3) n (%)
  TEAE: Arthralgia: 0 n (%)
  TEAE: Arthropod bite: 1 (3.3) n (%)
  TEAE: Back pain: 0 n (%)
  TEAE: Blood creatine phosphokinase increased: 1 (3.3) n (%)
  TEAE: Blood creatinine increased: 1 (3.3) n (%)
  TEAE: Cough: 1 (3.3) n (%)
  TEAE: Dermatitis contact: 2 (6.7) n (%)
  TEAE: Dry eye: 0 n (%)
  TEAE: Fatigue: 2 (6.7) n (%)
  TEAE: Fluid overload: 1 (3.3) n (%)
  TEAE: Gingival pain: 1 (3.3) n (%)
  TEAE: Hyperkalemia: 1 (3.3) n (%)
  TEAE: Infusion site erythema: 1 (3.3) n (%)
  TEAE: Nasopharyngitis: 0 n (%)
  TEAE: Rash: 1 (3.3) n (%)
  TEAE: Renal failure: 0 n (%)
  TEAE: Renal impairment: 0 n (%)
  TEAE: Testicular pain: 0 n (%)
  TEAE: Troponin increased: 2 (6.7) n (%)
  TEAE: Ventricular tachycardia: 2 (6.7) n (%)
[2]
  hs-troponin T, max change from baseline: (0.041) ng/mL
  hs-troponin T, max peak troponin post dose: (0.052) ng/mL
  hs-troponin T, median change from baseline: 0.005 ng/mL
  hs-troponin T, median peak troponin post dose: 0.020 ng/mL
[3]
  Troponin I, max change from baseline: (0.87) ng/mL
  Troponin I, max peak troponin post dose: (0.88) ng/mL
  Troponin I, median change from baseline: 0.010 ng/mL
  Troponin I, median peak troponin post dose: 0.025 ng/mL
Single dose up to 550 mg and 50 to 100 mg BID for 7 days, HFrEF subjects
  safety and tolerability: safe and generally well-tolerated
